Test results published in patent US10407409B2, “6-(5-hydroxy-1H-pyrazol-1-yl)nicotinamide inhibitors of PHD” (Takeda Pharmaceutical Company Limited, priority 2013, dated 2019).

What was measured:
[1] = tested on: HIF1a protein in H9c2 rat cardiomyocytes; assay: Cell-based HIF-alpha stabilization assay (inhibition of PHD in cells); conditions: 24 hrs compound incubation, HIF1a protein by ELISA; for EC50: Rattus norvegicus, H9c2, 24 h, read-out: Inhibition of PHD in cells (pEC50) (converted)
Summary of the method: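 Rat H9c2 cardiomyocytes, cultured 24 h, were treated 24 h with an 11-point serial dilution of compound. HIF1a in whole-cell lysates was quantified by ELISA as % of the maximal desferrioxamine response. EC50 came from curve fitting; EC50pos is the concentration reaching 50% of the desferrioxamine maximum.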

VEGF = assay: Heart gene changes for vascular endothelial growth factor (VEGF), qRT-PCR; format: in vivo, mice; conditions: 60 mg/kg; for VEGF % Increase Compared to Control: male C57BL/6 mice, oral, heart, 2 h after dosing
Method: Example D Determination of Heart Gene Changes for Vascular Endothelial Growth Factor (VEGF)
PHD inhibitor or vehicle were administered orally to male C57BL/6 in groups of four. The compounds were formulated in 30% hydroxypropyl beta-cyclodextrin in 50 mM Sodium Phosphate pH7.4 at doses of 30 mg/kg and 60 mg/kg. Two hours after dosing the mice were euthanized by CO2 and the hearts were removed quickly, sectioned into 2 pieces; the lower (apical) section was snap frozen and stored at −80° C. and analyzed for VEGF gene changes applying qRT-PCR and using Life Technologies #4392938 and an RNA extraction protocol using Qiagen #74881 RNeasy 96 Universal Tissue Kit. Standards are made from RNA from combined vehicle treated animals at a concentration of 100 μg/mL, a 7 point curve is made with 1:4 dilutions and a blank. Samples are run on using RNA-to-CT 1-Step method using a StepOnePlus Real-Time PCR System from Applied Biosystems Relative quantitation is expressed by dividing the quantity of VEGF by the quantity of the reference gene. Treatment groups and vehicle control were combined and averaged.

Sprague Dawley rats = assay: In vivo cardioprotection assay, Langendorff global ischemia/reperfusion, rats; conditions: oral, 5 mg/kg, 30 min global ischemia, 90 min reperfusion
Method: (§1) Example C In Vivo Cardioprotection Assay
(§2) PHD inhibitor or vehicle was administered orally to 8-week old male C57 mice or Sprague Dawley rats. Four hours after dosing, hearts were removed quickly and perfused in a retrograde manner with modified Krebs-Henseleit buffer in a Langendorff apparatus at constant pressure (80 mmHg). To measure infarct size, hearts were first perfused for 20 min to reach equilibrium and then subjected to a 30-minute global ischemia (no-flow) period followed by a 60-min reperfusion period in mice or 90-min reperfusion in rats. The ventricles were cut transversely into 5 sections. The slices were stained 1% 2,3,5-triphenyl tetrazolium chloride (TTC) and scanned to measure the infarct area and the total area. Cardiac injury was assessed by measuring lactate dehydrogenase (LDH) release to coronary effluent during the 60-min reperfusion period (in mice only). The amount of LDH release was determined using an LDH activity assay kit (MBL International Corp.) as expressed as % of vehicle treated hearts.

[2] = molecular target: PHD2 enzyme (residues 181-417) (Homo sapiens (Human), UniProt Q9GZT9); assay: Inhibition of PHD enzyme (LC/MS peptide hydroxylation assay); format: biochemical; conditions: PHD2 (residues 181-417) 5 nM, 60 min pre-incubation; -log(IC50), IC50 molar
Chain of PHD2 enzyme (residues 181-417) (Q9GZT9 181-417): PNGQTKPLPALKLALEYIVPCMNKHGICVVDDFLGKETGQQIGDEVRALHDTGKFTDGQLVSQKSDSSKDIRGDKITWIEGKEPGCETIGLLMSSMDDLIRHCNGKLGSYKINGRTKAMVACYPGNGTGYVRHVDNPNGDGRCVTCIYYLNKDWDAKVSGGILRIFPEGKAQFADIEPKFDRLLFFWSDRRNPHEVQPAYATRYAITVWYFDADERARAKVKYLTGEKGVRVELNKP
Summary of the method: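 PHD2 (5 nM final) preincubated with inhibitor 60 min at RT in 50 mM HEPES, 50 mM KCl, 0.5 mM TCEP, 2 uM FeCl2, 0.1 mg/ml BSA, pH 7.3. Reaction started with biotin-peptide (1 uM), 2-oxoglutarate (2 uM), ascorbate (1 mM), quenched at 60 min; hydroxylated product by LC/MS, reported as pIC50.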

C57 mice = assay: In vivo cardioprotection assay, Langendorff global ischemia/reperfusion, mice; conditions: oral, 60 min reperfusion; for reduced area of the infarct compared to vehicle control: 4 h after dosing, 30 min global ischemia
Method: as §1, §2

Compound	EC50 [1] [nM]	PHD Inhibition (pIC50) [2]	other results
CC(C)(C)NC(=O)c1ccc(-n2ncc(-c3cccnc3)c2O)nc1 [Example R1, N-tert-butyl-6-(5-oxo-4-pyridin-3-yl-2,5-dihydro-1H-pyrazol-1-yl)pyridine-3-carboxamide, reference compound]	955		VEGF % Increase Compared to Control (VEGF): 95.2%
CCN1CCN(C(=O)c2ccc(-n3ncc(-c4ccc(C#N)cc4C)c3O)nc2)CC1 [Example 282, 4-(1-(5-(4-ethylpiperazine-1-carbonyl)pyridin-2-yl)-5-hydroxy-1H-pyrazol-4-yl)-3-methylbenzonitrile]	575	8.00	reduced area of the infarct (Sprague Dawley rats): 30%; greater VEGF mRNA production compared to the compound of Example R1 (VEGF; mouse heart): 2 fold; VEGF % Increase Compared to Control (VEGF): 203.1%; reduction of LDH released to the coronary effluent (C57 mice; 10 mg/kg): 51%; reduced area of the infarct compared to vehicle control (C57 mice; 10 mg/kg): 50%; reduction of LDH released to the coronary effluent (C57 mice; 30 mg/kg): 56%; reduced area of the infarct compared to vehicle control (C57 mice; 30 mg/kg): 59%
COc1cc(-c2cnn(-c3ccc(C(=O)NCCCn4ccnc4)cn3)c2O)ccn1 [Example 35, N-(3-(1H-imidazol-1-yl)propyl)-6-(5-hydroxy-4-(2-methoxypyridin-4-yl)-1H-pyrazol-1-yl)nicotinamide]		7.8	Inhibition of PHD in cells (pEC50) [1]: 5.50
CN1CC(NC(=O)c2ccc(-n3ncc(-c4ccc(C#N)cc4)c3O)nc2)C1 [Example 76, 6-(4-(4-cyanophenyl)-5-hydroxy-1H-pyrazol-1-yl)-N-(1-methylazetidin-3-yl)nicotinamide]	3090	6.68	
Cc1cc(C#N)ccc1-c1cnn(-c2ccc(C(=O)N3CCC[C@@H](N(C)C4CC4)C3)cn2)c1O [Example 383, (R)-4-(1-(5-(3-(cyclopropyl(methyl)amino)piperidine-1-carbonyl)pyridin-2-yl)-5-hydroxy-1H-pyrazol-4-yl)-3-methylbenzonitrile]	1100	8.28	
Cc1c(-c2cnn(-c3ccc(C(=O)N4CCCC4)cn3)c2O)ccc(C#N)c1F [Example 325, 2-fluoro-4-(5-hydroxy-1-(5-(pyrrolidine-1-carbonyl)pyridin-2-yl)-1H-pyrazol-4-yl)-3-methylbenzonitrile]	977	8.44	
Cc1cc(C#N)c(F)cc1-c1cnn(-c2ccc(C(=O)N3CCOCC3)cn2)c1O [Example 398, 2-fluoro-4-(5-hydroxy-1-(5-(morpholine-4-carbonyl)pyridin-2-yl)-1H-pyrazol-4-yl)-5-methylbenzonitrile]	1950	8.65	
Cc1cc(C#N)ccc1-c1cnn(-c2ccc(C(=O)NCCCN3CCOCC3)cn2)c1O [Example 104, 6-(4-(4-cyano-2-methylphenyl)-5-hydroxy-1H-pyrazol-1-yl)-N-(3-morpholinopropyl)nicotinamide]	95.5	8.2	
Cc1c(-c2cnn(-c3ccc(C(=O)N4CCC[C@@H](N(C)C5CC5)C4)cn3)c2O)ccc(C#N)c1F [Example 331, (R)-4-(1-(5-(3-(cyclopropyl(methyl)amino)piperidine-1-carbonyl)pyridin-2-yl)-5-hydroxy-1H-pyrazol-4-yl)-2-fluoro-3-methylbenzonitrile]	813	8.33	
CN1CCC(CNC(=O)c2ccc(-n3ncc(-c4ccc(C#N)cc4)c3O)nc2)CC1 [Example 57, 6-(4-(4-cyanophenyl)-5-hydroxy-1H-pyrazol-1-yl)-N-((1-methylpiperidin-4-yl)methyl)nicotinamide]		6.98	Inhibition of PHD in cells (pEC50) [1]: 5.70
Cc1c(-c2cnn(-c3ccc(C(=O)N4CCN5CCC[C@@H]5C4)cn3)c2O)ccc(C#N)c1F [Example 334, (R)-2-fluoro-4-(5-hydroxy-1-(5-(octahydropyrrolo[1,2-a]pyrazine-2-carbonyl)pyridin-2-yl)-1H-pyrazol-4-yl)-3-methylbenzonitrile]	1380	8.50	
COCCCCNC(=O)c1ccc(-n2ncc(-c3ccc(C#N)cc3OC)c2O)nc1 [Example 238, 6-(4-(4-cyano-2-methoxyphenyl)-5-hydroxy-1H-pyrazol-1-yl)-N-(4-methoxybutyl)nicotinamide]	468	6.85	
COCCCN(C)C(=O)c1ccc(-n2ncc(-c3ccc(C#N)cc3C)c2O)nc1 [Example 251, 6-(4-(4-cyano-2-methylphenyl)-5-hydroxy-1H-pyrazol-1-yl)-N-(3-methoxypropyl)-N-methylnicotinamide]	324	8.2	
CCN1CCN(C(=O)c2ccc(-n3ncc(-c4ccc(C#N)c(F)c4C)c3O)nc2)C[C@@H]1C [Example 328, (S)-4-(1-(5-(4-ethyl-3-methylpiperazine-1-carbonyl)pyridin-2-yl)-5-hydroxy-1H-pyrazol-4-yl)-2-fluoro-3-methylbenzonitrile]	309	8.39	
CCC(CC)N1CCN(C(=O)c2ccc(-n3ncc(-c4ccc(C#N)cc4C)c3O)nc2)CC1 [Example 369, 4-(5-hydroxy-1-(5-(4-(pentan-3-yl)piperazine-1-carbonyl)pyridin-2-yl)-1H-pyrazol-4-yl)-3-methylbenzonitrile]	1200	7.701	
Cc1cc(C#N)ccc1-c1cnn(-c2ccc(C(=O)N(C)CC3CCN(C(C)C)C3)cn2)c1O (stereo not drawn) [Example 362, 6-(4-(4-cyano-2-methylphenyl)-5-hydroxy-1H-pyrazol-1-yl)-N-((1-isopropylpyrrolidin-3-yl)methyl)-N-methylnicotinamide]	525	7.80	
